Assay results as given in ChEMBL document CHEMBL3352577, “A simple and widely applicable hit validation strategy for protein-protein interaction inhibitors based on a quantitative ligand displacement assay” (Bioorg Med Chem Lett, 2014).

Assays:
Bcl-2-like protein 1 [1] = target: T1, Bcl-2-like protein 1 (Homo sapiens, UniProt Q07817); assay: Displacement of F-bid from human recombinant N-terminal His-tagged Bcl-xL (1 to 209) expressed in Escherichia coli BL21(DE3) after 2 hrs by fluorescence polarization assay
[2] = target: T2, Induced myeloid leukemia cell differentiation protein Mcl-1 (Homo sapiens, UniProt Q07820); assay: Displacement of F-bid from human recombinant N-terminal His-tagged Mcl-1 (1 to 319) expressed in Escherichia coli BL21(DE3) after 2 hrs by fluorescence polarization assay
Bcl-2-like protein 1 [3] = target: T1, Bcl-2-like protein 1; assay: Displacement of F-bid from human recombinant N-terminal His-tagged Bcl-xL (1 to 209) expressed in Escherichia coli BL21(DE3) after 30 mins by TR-FRET assay
Bcl-2-like protein 1 [4] = target: T1, Bcl-2-like protein 1; assay: Displacement of F-bid from human recombinant N-terminal His-tagged Bcl-xL (1 to 209) expressed in Escherichia coli BL21(DE3) after 120 mins by TR-FRET assay
Bcl-2-like protein 1 [5] = target: T1, Bcl-2-like protein 1; assay: Reversible inhibition of human recombinant N-terminal His-tagged Bcl-xL (1 to 209) expressed in Escherichia coli BL21(DE3) after 30 to 120 mins by TR-FRET assay in presence of F-bid
[6] = target: T2, Induced myeloid leukemia cell differentiation protein Mcl-1; assay: Displacement of F-bid from human recombinant N-terminal His-tagged Mcl-1 (1 to 319) expressed in Escherichia coli BL21(DE3) after 120 mins by TR-FRET assay

T2 sequence (Q07820 whole entry): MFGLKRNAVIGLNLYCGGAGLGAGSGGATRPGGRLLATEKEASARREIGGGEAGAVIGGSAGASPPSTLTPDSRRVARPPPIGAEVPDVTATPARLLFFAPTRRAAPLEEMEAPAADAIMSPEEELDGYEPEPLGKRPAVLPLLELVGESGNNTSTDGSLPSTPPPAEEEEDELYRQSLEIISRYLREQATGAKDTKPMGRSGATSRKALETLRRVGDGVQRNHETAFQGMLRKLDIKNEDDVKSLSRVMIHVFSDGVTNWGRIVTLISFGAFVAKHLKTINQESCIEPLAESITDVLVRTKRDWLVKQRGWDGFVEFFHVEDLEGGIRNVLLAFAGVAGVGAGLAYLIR
T1 sequence (Q07817 whole entry): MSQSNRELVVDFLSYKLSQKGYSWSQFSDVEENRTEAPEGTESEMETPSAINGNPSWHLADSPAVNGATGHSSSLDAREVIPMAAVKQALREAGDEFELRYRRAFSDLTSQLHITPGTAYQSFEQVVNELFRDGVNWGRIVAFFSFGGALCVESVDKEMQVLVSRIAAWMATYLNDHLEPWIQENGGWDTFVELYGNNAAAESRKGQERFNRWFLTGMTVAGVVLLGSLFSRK

Row | SMILES | Ki (Bcl-2-like protein 1 [1]) [µM] | Ki [2] [µM] | IC50 (Bcl-2-like protein 1 [3]) [µM] | IC50 (Bcl-2-like protein 1 [4]) [µM] | Ki (Bcl-2-like protein 1 [4]) [µM] | Ki (Bcl-2-like protein 1 [5]) [µM] | Ki [6] [µM]
1 | O=C(CC(Sc1ccc(Cl)cc1)C(=O)O)c1ccc(C2CCCCC2)cc1 (centres undefined) | 4.7 | 14 | 18 | 19 | 12 | 13 | 12
2 | O=C(CC(Cc1ccc(Cl)cc1)C(=O)O)c1ccc(C2CCCCC2)cc1 (centres undefined) |  |  |  |  |  | 9 | 20
